Reference: patent US20120029038A1, “ANIMAL ECTOPARASITE-CONTROLLING AGENT” (SUMITOMO CHEMICAL COMPANY, LIMITED, priority 2010, published 2012)

Assays:
Assay type in all cases: in vivo
[1] = test system: ticks (Haemaphysalis longicornis); experiment: Pesticidal activity on ticks in filter paper test; details: 48 h, 100 mg/m^2, non-blood-fed young ticks, 2 days later
Procedure: Each (5 mg) of the present hydrazide compounds (1), (3) to (5), (8), (10) and (13) was dissolved in acetone (10 mL), and this acetone solution (1 mL) was uniformly applied onto one side of a filter paper (TOYO No. 2; 5×10 cm; the surface area of the filter paper was 50 cm^2, and thus the amount of the present hydrazide compound applied was 100 mg/m^2). After drying, said filter paper was folded, and the both sides of the paper were clipped to form a bag. Into this bag, test ticks (Haemaphysalis longicornis, non-blood-fed young ticks, 10 ticks/group) were added, and the opening was clipped to seal the bag. Two (2) days later, the number of dead ticks was examined and the mortality was calculated by the following formula:
Mortality(%)=100×(number of dead ticks/number of ticks tested)

[2] = test system: cat fleas (Ctenocephalides felis); experiment: Dropping application against mouse-infested cat fleas; details: 0.5% w/v solution 200 μL dropwise along dorsal line, 2 days later
Procedure: The present hydrazide compound (8) (25 mg) was dissolved in propylene carbonate (5 mL) to prepare a 0.5% w/v solution. Said solution (200 μL) was applied dropwise along the dorsal line of a mouse with a pipette. To a control group, propylene carbonate (200 μL) alone was applied. Each application was repeated 3 times per group.
After the dropping application, 20 cat fleas were deposited on each mouse. Two (2) days later, the number of dead cat fleas was examined and the mortality was calculated by the following formula:
(§1) Mortality(%)=100×(number of dead cat fleas/number of cat fleas tested)

[3] = test system: cat fleas (Ctenocephalides felis); experiment: Oral administration against cat-infested cat fleas; details: oral with cat food
Procedure: The previous day before oral administration, 50 test fleas (cat flea adults) were deposited on a cat. Before the oral administration, infested fleas were counted.
Each of the present hydrazide compounds (5) and (8) was mixed with a cat food, and orally administered to a cat in a dose amount of 5 or 20 mg per 1 kg of the cat's body weight. This is referred to as a test group. On the other hand, the cat food alone was fed to a placebo group.
Two (2) days after the administration, the number of living fleas, which were infesting the cats, was examined. When the examination was completed, all infested fleas were removed from the cats.
(§2) Forty two (42) days later, 50 test fleas were re-deposited on each cat. Two (2) days after the re-deposit, the number of living fleas, which were infesting the cats, was examined. When the examination was completed, all infested fleas were removed from the cats. The infestation rate and control rate were calculated by the following formulae: […]
(i) Method of calculating infestation rate and control rate at the initial stage (2 days) after the administration:
Infestation rate(%) at X days after administration=(number of living fleas at X days/number of living fleas before administration)×100
Control rate(%) at X days after administration (infestation rate of test group before administration−infestation rate of test group at X days)/infestation rate of test group before administration×100
(ii) Method of calculating infestation rate and control rate at 44 days after the administration:
Infestation rate(%) at X days after administration=(number of living fleas at X days/number of fleas deposited)×100
Control rate(%) at X days after administration (infestation rate of placebo group at X days−infestation rate of test group at X days)/infestation rate of placebo group at X days×100
(§3) In addition, if an infestation rate of a test group is higher than a placebo group, then the control rate is deemed to be 0%.

[4] = test system: ticks (Haemaphysalis longicornis); experiment: Oral administration against dog-infested ticks; details: oral gelatin capsules, 20 mg/kg
Procedure: Each of the present hydrazide compounds (5) and (8) and Comparative compound (52) was filled into gelatin capsules, and forcibly and orally administered to a dog in a dose amount of 20 mg per 1 kg of the dog's body weight. This is referred to as a test group. On the other hand, gelatin capsules alone were orally administered to a placebo group.
(§4) Forty two (42) days later, 100 test ticks were deposited on each dog. Two (2) days after the deposit, the number of living ticks, which were infesting the dogs, was examined. When the examination was completed, all infested ticks were removed from the dogs. The infestation rate and control rate were calculated by the following formulae: […]
Method of calculating infestation rate and control rate at 44 days after the administration:
Infestation rate(%) at X days after administration=(number of living ticks at X days/number of ticks deposited)×100
Control rate(%) at X days after administration (infestation rate of placebo group at X days−infestation rate of test group at X days)/infestation rate of placebo group at X days[…]
as §3

[5] = test system: cat fleas (Ctenocephalides felis); experiment: Dropping application against cat-infested cat fleas
Procedure: The previous day before dropping application, 50 test fleas (cat flea adults) were deposited on a cat. Before the dropping application, infested fleas were counted.
Each (0.375 g or 1.5 g) of the present hydrazide compounds (5) and (8) and Comparative compound (52) was dissolved in diethylene glycol monoethyl ether (6.0 g) to prepare a test solution. Said test solution was directly dropped on the skin of the neck and back of the cat while pushing aside fur thereon on at a rate of 0.1 ml per 1 kg of the cat's body weight (dose amount: 5 or 20 mg/kg). This is referred to as a test group. On the other hand, diethylene glycol monoethyl ether alone was applied dropwise to a placebo group.
Two (2) days after the application, the number of living fleas, which were infesting the cats, was examined. When the examination was completed, all infested fleas were removed from the cats.
as §2, with “Fourteen (14) days and 28” for “Forty two (42)”
(§5) (i) Method of calculating infestation rate and control rate at the initial stage (2 days) after the application:
Infestation rate(%) at X days after application=(number of living fleas at X days/number of living fleas before application)×100
(§6) Control rate(%) at X days after application=(infestation rate of test group before application−infestation rate of test group at X days)/infestation rate of test group before application×100
(§7) (ii) Method of calculating infestation rate and control rate at 16 days and 30 days after the application:
Infestation rate(%) at X days after application−(number of living fleas at X days/number of fleas deposited)×100
(§8) Control rate(%) at X days after the application (infestation rate of placebo group at X days−infestation rate of test group at X days)/infestation rate of placebo group at X days×100
as §3

[6] = test system: cat fleas (Ctenocephalides felis); experiment: Pesticidal activity on cat fleas in filter paper test; details: 48 h
Procedure: Each (11.3 mg) of the present hydrazide compounds (5) and (8) was dissolved in acetone (5 mL), and this acetone solution ([…]) was uniformly applied onto one side of a filter paper (TOYO No. 2; diameter 3.8 cm; the surface area of the filter paper was 11.3 cm^2, and thus the amount of the present hydrazide compound applied was 400 mg/m^2). After drying, said filter paper was placed on the inside of the lid of a 100 mL vial container. Into the vial container, 20 cat flea adults were released and the lid was closed. The vial container was inverted to force the cat fleas to contact the filter paper. Two (2) days later, the number of dead fleas was examined and the mortality was calculated by the following formula:
as §1

[7] = test system: ticks (Haemaphysalis longicornis); experiment: Dropping application against dog-infested ticks; details: dog (beagle), 20 mg/kg
Procedure: The previous day before dropping application, 100 test ticks (Haemaphysalis longicornis, young ticks) were deposited on a dog (beagle). Before the dropping application, infested ticks were counted.
Each (1.5 g) of the present hydrazide compounds (5) and (8) was dissolved in diethylene glycol monoethyl ether (6.0 g) to prepare a test solution. Said test solution was directly dropped on the skin of the neck and back of the dog while pushing aside fur thereon at a rate of 0.1 ml per kg of the dog's body weight (dose amount: 20 mg/kg). This is referred to as a test group. On the other hand, diethylene glycol monoethyl ether alone was applied dropwise to a placebo group.
Two (2) days after the application, the number of living ticks, which were infesting the dogs, was examined. When the examination was completed, all infested ticks were removed from the dogs.
as §4, with “Fourteen (14) days and 28” for “Forty two (42)”, “re-deposited” for “deposited”, “re-deposit,” for “deposit,”
as §5
Infestation rate(%) at X days after application=(number of living ticks at X days/number of living ticks before application)×100
as §6, §7
Infestation rate(%) at X days after application=(number of living ticks at X days/number of ticks deposited)×100
as §8, §3

O=C(CC(F)(F)F)NNc1cc(C2=NOC(c3cc(Cl)cc(Cl)c3)(C(F)(F)F)C2)ccc1F (stereo not drawn) [(3), N′-{5-[5-(3,5-dichlorophenyl)-5-trifluoromethyl-4,5-dihydroisoxazol-3-yl]-2-fluorophenyl}-3,3,3-trifluoropropionohydrazide]
mortality at 100 mg/m2 [1]: ≥ 90%

CN(NC(=O)CCC(F)(F)F)c1cc(C2=NOC(c3cc(Cl)cc(Cl)c3)(C(F)(F)F)C2)ccc1Cl (stereo not drawn) [Compound (8), N′-methyl-N′-{2-chloro-5-[5-(3,5-dichlorophenyl)-5-trifluoromethyl-4,5-dihydroisoxazol-3-yl]phenyl}-4,4,4-trifluorobutyrohydrazide]
Mortality [2]: ≥ 70% | Flea control rates (%) at 2 days after the administration ([3]; 5 mg/kg): 100% | Flea control rates (%) at 44 days after the administration ([3]; 5 mg/kg): 90% | Flea control rates (%) at 2 days after the administration ([3]; 20 mg/kg): 100% | Flea control rates (%) at 44 days after the administration ([3]; 20 mg/kg): 100% | Tick control rates (%) at 44 days after the administration [4]: 93% | Flea control rates (%) at 2 days after the application ([5]; 5 mg/kg): 100% | Flea control rates (%) at 16 days after the application ([5]; 5 mg/kg): 100% | Flea control rates (%) at 30 days after the application ([5]; 5 mg/kg): 97% | Flea control rates (%) at 2 days after the application ([5]; 20 mg/kg): 100% | Flea control rates (%) at 16 days after the application ([5]; 20 mg/kg): 100% | Flea control rates (%) at 30 days after the application ([5]; 20 mg/kg): 100% | mortality at 400 mg/m2 [6]: ≥ 90% | Tick control rates (%) at 2 days after the application [7]: 31% | Tick control rates (%) at 16 days after the application [7]: 100% | Tick control rates (%) at 30 days after the application [7]: 100%

O=C(CCC(F)(F)F)NNc1cc(C2=NOC(c3cc(Cl)cc(Cl)c3)(C(F)(F)F)C2)ccc1Cl (stereo not drawn) [Compound (5), N′-{5-[5-(3,5-dichlorophenyl)-5-trifluoromethyl-4,5-dihydroisoxazol-3-yl]-2-chlorophenyl}-4,4,4-trifluorobutyrohydrazide]
Flea control rates (%) at 2 days after the administration ([3]; 5 mg/kg): 100% | Flea control rates (%) at 44 days after the administration ([3]; 5 mg/kg): 81% | Flea control rates (%) at 2 days after the administration ([3]; 20 mg/kg): 100% | Flea control rates (%) at 44 days after the administration ([3]; 20 mg/kg): 100% | Tick control rates (%) at 44 days after the administration [4]: 89% | Flea control rates (%) at 2 days after the application ([5]; 5 mg/kg): 83% | Flea control rates (%) at 16 days after the application ([5]; 5 mg/kg): 100% | Flea control rates (%) at 30 days after the application ([5]; 5 mg/kg): 97% | Flea control rates (%) at 2 days after the application ([5]; 20 mg/kg): 100% | Flea control rates (%) at 16 days after the application ([5]; 20 mg/kg): 100% | Flea control rates (%) at 30 days after the application ([5]; 20 mg/kg): 100% | mortality at 400 mg/m2 [6]: ≥ 90% | Tick control rates (%) at 2 days after the application [7]: 51% | Tick control rates (%) at 16 days after the application [7]: 100% | Tick control rates (%) at 30 days after the application [7]: 100%

O=C(CC(F)(F)F)NNc1cccc(C2=NOC(c3cc(Cl)cc(Cl)c3)(C(F)(F)F)C2)c1 (stereo not drawn) [(1), N′-{3-[5-(3,5-dichlorophenyl)-5-trifluoromethyl-4,5-dihydroisoxazol-3-yl]phenyl}-3,3,3-trifluoropropionohydrazide]
mortality at 100 mg/m2 [1]: ≥ 90%

CCc1ccc(C2=NOC(c3cc(Cl)cc(Cl)c3)(C(F)(F)F)C2)cc1NNC(=O)CC(F)(F)F (stereo not drawn) [(13), N′-{5-[5-(3,5-dichlorophenyl)-5-trifluoromethyl-4,5-dihydroisoxazol-3-yl]-2-ethylphenyl}-3,3,3-propionohydrazide]
mortality at 100 mg/m2 [1]: ≥ 90%

O=C(CCCC(F)(F)F)NNc1cc(C2=NOC(c3cc(Cl)cc(Cl)c3)(C(F)(F)F)C2)ccc1Cl (stereo not drawn) [(10), N′-{2-chloro-5-[5-(3,5-dichlorophenyl)-5-trifluoromethyl-4,5-dihydroisoxazol-3-yl]phenyl}-5,5,5-trifluoropentanohydrazide]
mortality at 100 mg/m2 [1]: ≥ 90%

CC(=O)NNc1cc(C2=NOC(c3cc(Cl)cc(Cl)c3)(C(F)(F)F)C2)ccc1Cl (stereo not drawn) [Comparative compound (52), N′-{5-[5-(3,5-dichlorophenyl)-5-trifluoromethyl-4,5-dihydroisoxazol-3-yl]-2-chlorophenyl}acetohydrazide, reference compound]
Tick control rates (%) at 44 days after the administration [4]: 74% | Flea control rates (%) at 2 days after the application ([5]; 5 mg/kg): 25% | Flea control rates (%) at 16 days after the application ([5]; 5 mg/kg): 87% | Flea control rates (%) at 30 days after the application ([5]; 5 mg/kg): 58%
